Legend:
[1] = tested on: immunocompetent cells from the Peyer's patches; assay: IFN-γ production by immunocompetent cells from the Peyer's patches of orally treated mice, LPS stimulation (Experiment 1); assay type: in vivo, male C3H/HeN mice; conditions: 1 g/kg oral, once per day for five days, two days culture, versus non-treated mice (FIG. 1)
Method: The effect on response of immunocompetent cells with trehalose administration was evaluated based on the production level of IFN-γ as a merkmal when the immunocompetent cells from the Peyer's patches were stimulated with lipopolysaccharide (LPS). IFN-γ is a cytokine which also improves the production of IgA as described above. α,α-Trehalose crystalline powder (registered trademark of “TREHA”, commercialized by Hayashibara Shoji Co. Ltd., Okayama, Japan) was dissolved in distilled water and sterilized, and then administrated into male C3H/HeN, five weeks aged mice (ten mice in each group) through oral pathway for five days by one time per day with a dosage of 1 g/kg mouse body weight of α,α-trehalose. Non-α,α-trehalose administrated mice as a control were administrated with an equal volume of distilled water. All the mice were bred under a clean environment, and freely fed with a sterilized solid fodder and water. […] The cells were incubated for two days in an incubator maintained at 37° C. and 5% CO2, after that, the IFN-γ concentration in each culture was measured by a conventional enzyme immunoassay. […]

[2] = tested on: immunocompetent cells from the Peyer's patches; assay: IL-2, IFN-γ and IgA production by immunocompetent cells from the Peyer's patches of orally treated mice, LPS or Con A stimulation (Experiment 2); assay type: in vivo, female ddY mice; conditions: 0.1 g/kg oral, five times per week for four weeks, three days culture
Method: The effect on the response of immunocompetent cells with trehalose administration was evaluated by the production level of IL-2, IFN-γ, and IgA as a merkmal when the immunocompetent cells from the Peyer's patches stimulated with lipopolysaccharide (LPS) or Concanavalin A (Con A). Specifically, 0.1 g/kg mouse body weight of α,α-trehalose was administrated into female ddY mice through oral administration for four weeks with five times per a week, and non-α,α-trehalose administrated mice were used as a control. All the mice were anatomized and picked up all the Peyer's patches, which were then cut into pieces and treated with 0.2% (w/v) of collagenase solution at 37° C. for 30 minutes, passed through a cell strainer to remove non-digestive materials, and centrifuged to obtain a pellet. The pellet was suspended with a 45% (v/v) percol solution, and the suspension was put on a 75% (v/v) percol solution and centrifuged. Then, immunocompetent cells in an inter layer of percol were recovered and suspended in RPMI1640 medium with 10% of fetal calf serum and 5×10^−5 mol/l of 2-mercaptethanol. The resulting suspension was divided into three groups, and the two groups of which were mixed with 2 μg/ml of LPS or 5 μg/ml of Con A and adjusted a final concentration to 1×10^6 cells/ml. The resulting group as a control was not received with the above stimulation. They were incubated for three days in an incubator maintained at 37° C. and 5% CO2. Thereafter, the concentrations of the IL-2, IFN-γ and IgA concentration in the resulting cultures were measured by a conventional immunoassay method in Experiment 1.

OC[C@H]1O[C@H](O[C@H]2O[C@H](CO)[C@@H](O)[C@H](O)[C@H]2O)[C@H](O)[C@@H](O)[C@@H]1O [α,α-Trehalose, α,α-trehalose]
IFN-γ production with no LPS stimulation ([1]; cells with 0 μg/ml LPS): tendency to decrease IFN-γ production | IFN-γ production under the LPS stimulation ([1]; cells with 0.2 or 1 μg/ml LPS): stronger tendency of increasing production of IFN-γ | IFN-γ ([2]; no stimulation): Under 0.4 IU/ml | IL-2 ([2]; no stimulation): Under 50 pg | IgA ([2]; no stimulation): 719 ng/mL | IFN-γ ([2]; stimulation Con A 5 μg/ml): 6.4 IU/ml | IL-2 ([2]; stimulation Con A 5 μg/ml): Under 50 pg | IgA ([2]; stimulation Con A 5 μg/ml): 1671 ng/mL | IFN-γ ([2]; stimulation LPS 2 μg/ml): 4.5 IU/ml | IL-2 ([2]; stimulation LPS 2 μg/ml): 115 pg | IgA ([2]; stimulation LPS 2 μg/ml): 2305 ng/mL

— US20040127455A1, “Muscosal immunoregulatory agent and its use” (KABUSHIKI Kaisha Hayashibara Seibutsu KK, priority 2000, published 2004)
